Consider 32 compounds from patent US20220388953A1, “COMPOUNDS WITH ANTIMICROBIAL ACTIVITY” (The Hong Kong Polytechnic University, priority 2018, published 2022).

Converted amounts (≈) assume the structure as drawn. Like-named read-outs stand apart in the source and are kept apart here. Where only a bound is given, the exact number is not on record here.

Series [1] deals with Streptococcus pneumoniae (Klein) Chester (ATCC 49619). As to the kind of experiment: Antimicrobial assay, broth microdilution (CLSI), MIC. Format: cell-based. On the procedure: C3 derivatives were synthesized and antimicrobial activity measured against Streptococcus pneumoniae (MIC, minimum inhibitory concentration).
Bacterial Strains was used in this study is Streptococcus pneumoniae (Klein) Chester (ATCC® 49619™)
The antimicrobial activity of the compounds was determined by broth microdilution according to the Clinical & Laboratory Standards Institute (CLSI) guidelines. The test medium was cation-adjusted Mueller-Hinton broth (MH). Serial two-fold dilutions were performed for the tested chemicals starting from 256 μg/mL to 0.5 μg/mL, and the bacterial cell inoculum was adjusted to approximately 5×10^5 CFU/mL. Results were taken after 20 h of incubation at 37° C. The MIC was defined as the lowest concentration of antibiotic with no visible growth. Experiments were performed in duplicates.

[2] abbreviates: Streptococcus pneumoniae, ATCC49619, 20 h.
Setting [3] is: ATCC49619, Table 1, Streptococcus pneumoniae ATCC 49619, 20 h at 37° C., read-out: MIC.
The mark [4] stands for this setting: ATCC49619, Table 3, Streptococcus pneumoniae ATCC 49619, 20 h at 37° C., read-out: MIC.

Compound `Nc1ccccc1Sc1ccc(C2(O)c3ccccc3C(=O)N2c2cccc(Cl)c2)cc1[N+](=O)[O-]` (stereo not shown) [C3-46] registered an MIC in series [1] (setting [2]) of over 256 µg/mL.
In the case of `COc1ccccc1Sc1ccc(C(=O)c2ccccc2C(=O)O)cc1[N+](=O)[O-]` [C3-2, 2-(4-((2-Methoxyphenyl)thio)-3-nitrobenzoyl)benzoic Acid], the melting point was in the range of 209 to 211 °C. In series [1] (setting [3]), the MIC worked out at 128 µg/mL (≈ 313 µM).
Take `O=C(O)c1ccccc1C(=O)c1ccc(NCc2ccccc2)c([N+](=O)[O-])c1` [C3-29, 2-(4-(Benzylamino)-3-nitrobenzoyl)benzoic Acid]: the melting point fell in the range of 88 to 90 °C. Also, the MIC in series [1] (setting [3]) was 256 µg/mL (≈ 680 µM).
The compound `O=C(O)c1ccccc1C(=O)c1ccc(Sc2ccc(Cl)c(Cl)c2)c([N+](=O)[O-])c1` [C3-13, 2-(4-((3,4-Dichlorophenyl)thio)-3-nitrobenzoyl)benzoic Acid] registered an MIC in series [1] (setting [2]) of 8 µg/mL (≈ 17.8 µM).
For the compound `NC(=O)c1cccc(Nc2ccc(C(=O)c3ccccc3C(=O)O)cc2[N+](=O)[O-])c1` [C3-22, 2-(4-((3-Carbamoylphenyl)amino)-3-nitrobenzoyl)benzoic Acid], the melting point fell in the range of 139 to 141 °C. The MIC in series [1] (setting [3]) is over 256 µg/mL.
As to `Nc1ccccc1Sc1ccc(C2(O)c3ccccc3C(=O)N2Cc2ccccc2)cc1[N+](=O)[O-]` (stereo not shown) [C3-47], the MIC in series [1] (setting [4]) is over 256 µg/mL.
`O=C(O)c1ccccc1C(=O)c1ccc(Nc2ccc(Cl)c(Cl)c2)c([N+](=O)[O-])c1` [C3-23, 2-(4-((3,4-Dichlorophenyl)amino)-3-nitrobenzoyl)benzoic Acid]: the melting point was 115 to 117 °C. This compound also had a minimum inhibitory concentration (MIC) in series [1] (setting [2]) of 64 µg/mL (≈ 148 µM).
In the case of `NC(=O)c1cccc(N2C(=O)c3ccccc3C2(O)c2ccc(Sc3ccccc3N)c([N+](=O)[O-])c2)c1` (stereo not shown) [C3-42], the MIC in series [1] (setting [4]) was found to be 32 µg/mL (≈ 62.4 µM).
In turn, `O=C(O)c1ccccc1C(=O)c1ccc(Nc2ccccc2)c([N+](=O)[O-])c1` [C3-25, 2-(3-Nitro-4-(phenylamino)benzoyl)benzoic Acid] came in with a melting point of 184 to 186 °C. Besides, inhibition of growth in series [1] (setting [2]) (MIC) required 256 µg/mL (≈ 707 µM).
In series [1] (setting [2]), `Nc1ccccc1Sc1ccc(C2(O)c3ccccc3C(=O)N2c2cccc(C(=O)O)c2)cc1[N+](=O)[O-]` (stereo not shown) [C3-43] yielded an MIC of 64 µg/mL (≈ 125 µM).
As to `Nc1ccccc1Sc1ccc(C2(O)NC(=O)c3ccccc32)cc1[N+](=O)[O-]` (stereo not shown) [C3-39], in series [1] (setting [4]), the MIC was 32 µg/mL (≈ 81.3 µM).
`Cc1ccc(Sc2ccc(C(=O)c3ccccc3C(=O)O)cc2[N+](=O)[O-])c(C)c1` [C3-12, 2-(4-((2,4-Dimethylphenyl)thio)-3-nitrobenzoyl)benzoic Acid] returned a melting point of 240 to 242 °C. Also, the MIC in series [1] (setting [2]) is 32 µg/mL (≈ 78.5 µM).
In turn, `Nc1cc(Cl)ccc1Sc1ccc(C(=O)c2ccccc2C(=O)O)cc1[N+](=O)[O-]` [C3-10, 2-(4-((2-Amino-4-chlorophenyl)thio)-3-nitrobenzoyl)benzoic Acid] had an MIC in series [1] (setting [2]) of 64 µg/mL (≈ 149 µM).
As for `NC1CCCCC1Nc1ccc(C(=O)c2ccccc2C(=O)O)cc1[N+](=O)[O-]` (stereo not shown) [C3-28, 2-(4-((2-Aminocyclohexyl)amino)-3-nitrobenzoyl)benzoic Acid], the MIC in series [1] (setting [3]) turned out to be 256 µg/mL (≈ 668 µM).
As for `CC(C)Nc1cccc(Sc2ccc(C(=O)c3ccccc3C(=O)O)cc2[N+](=O)[O-])c1` [C3-7, 2-(4-((3-(Isopropylamino)phenyl)thio)-3-nitrobenzoyl)benzoic Acid], the melting point is 130 to 132 °C. Further, the MIC in series [1] (setting [3]) was 32 µg/mL (≈ 73.3 µM).
Turning to `O=C(O)c1ccccc1C(=O)c1ccc(Nc2cccc(CO)c2)c([N+](=O)[O-])c1` [C3-19, 2-(4-((3-(Hydroxymethyl)phenyl)amino)-3-nitrobenzoyl)benzoic Acid], the melting point fell in the range of 132 to 134 °C. In series [1] (setting [3]), the minimum inhibitory concentration (MIC) was over 256 µg/mL.
With `CC(C)(C)c1cccc(N2C(=O)c3ccccc3C2(O)c2ccc(Sc3ccccc3N)c([N+](=O)[O-])c2)c1` (stereo not shown) [C3-44], in series [1] (setting [4]), the MIC is over 256 µg/mL.
The same measure, in the same setting: as for `Cc1cccc(N2C(=O)c3ccccc3C2(O)c2ccc(Sc3ccccc3N)c([N+](=O)[O-])c2)c1` (stereo not shown) [C3-45], the figure is over 256 µg/mL.
In turn, `CN(C)c1cc(C(=O)c2ccccc2C(=O)O)ccc1Sc1ccc(Cl)c(Cl)c1` [C3-095, 2-(4-((3,4-Dichlorophenyl)thio)-3-(dimethylamino)benzoyl)benzoic Acid] showed a melting point of 144 to 146 °C.
Consider `Nc1ccc(Sc2ccc(C(=O)c3ccccc3C(=O)O)cc2[N+](=O)[O-])cc1` [C3-6, 2-(4-((4-Aminophenyl)thio)-3-nitrobenzoyl)benzoic Acid], for which the MIC in series [1] (setting [2]) was 128 µg/mL (≈ 325 µM).
Compound `N#Cc1ccccc1NCc1ccc(Sc2ccc(Cl)c(Cl)c2)c([N+](=O)[O-])c1` [C3-091, 2-((4-((3,4-Dichlorophenyl)thio)-3-nitrobenzyl)amino)benzonitrile] displayed a melting point of 173 to 175 °C.
The same measure, in the same setting: as for `Nc1cc(C(=O)c2ccccc2C(=O)O)ccc1Sc1ccc(Cl)c(Cl)c1` [C3-094, 2-(3-Amino-4-((3,4-dichlorophenyl)thio)benzoyl)benzoic Acid], the figure is 188 to 190 °C.
Still for that read-out and setting: as for `Cc1ccc(C(=O)O)cc1NCc1ccc(Sc2ccc(Cl)c(Cl)c2)c([N+](=O)[O-])c1` [C3-075, 3-((4-((3,4-Dichlorophenyl)thio)-3-nitrobenzyl)amino)-4-methylbenzoic Acid], the figure is 222 to 224 °C.
Same read-out and setting: as for `O=C(O)c1cccc(NC(=O)c2ccc(Sc3ccc(Cl)c(Cl)c3)c([N+](=O)[O-])c2)c1` [C3-048, 3-(4-((3,4-Dichlorophenyl)thio)-3-nitrobenzamido)benzoic Acid], the figure is 280 to 282 °C.
For the compound `Nc1ccccc1Sc1ccc(C2(O)c3ccccc3C(=O)N2Cc2ccccc2F)cc1[N+](=O)[O-]` (stereo not shown) [C3-48], the MIC in series [1] (setting [4]) is over 256 µg/mL.
In turn, `O=C(O)c1cc(NCc2ccc(Sc3ccc(Cl)c(Cl)c3)c([N+](=O)[O-])c2)ccc1Cl` [C3-079, 2-Chloro-5-((4-((3,4-dichlorophenyl)thio)-3-nitrobenzyl)amino)benzoic Acid] registered a melting point of 148 to 150 °C.
Still for that read-out and setting: as for `O=C(O)c1c(Cl)cccc1NCc1ccc(Sc2ccc(Cl)c(Cl)c2)c([N+](=O)[O-])c1` [C3-088, 2-Chloro-6-((4-((3,4-Dichlorophenyl)thio)-3-nitrobenzyl)amino)benzoic Acid], the figure is 204 to 206 °C.
On to `Nc1ccccc1Sc1ccc(C2(O)c3ccccc3C(=O)N2c2ccccc2)cc1[N+](=O)[O-]` (stereo not shown) [C3-41], for which the minimal inhibitory concentration (MIC) in series [1] (setting [2]) was over 256 µg/mL.
Take `NC(=O)c1ccccc1NCc1ccc(Sc2ccc(Cl)c(Cl)c2)c([N+](=O)[O-])c1` [C3-090, 2-((4-((3,4-Dichlorophenyl)thio)-3-nitrobenzyl)amino)benzamide]: the melting point is 184 to 186 °C.
Still for that read-out and setting: for `NS(=O)(=O)c1cccc(NCc2ccc(Sc3ccc(Cl)c(Cl)c3)c([N+](=O)[O-])c2)c1` [C3-074, 3-((4-((3,4-Dichlorophenyl)thio)-3-nitrobenzyl)amino)benzenesulfonamide] the value was 191 to 193 °C; for `O=C(O)c1cccc(NCc2ccc(Sc3ccc(Cl)c(Cl)c3)c([N+](=O)[O-])c2)c1` [C3-047, 3-((4-((3,4-Dichlorophenyl)thio)-3-nitrobenzyl)amino)benzoic Acid], 224 to 226 °C.
For `Nc1cccc(Sc2ccc(C(=O)c3ccccc3C(=O)O)cc2[N+](=O)[O-])c1` [C3-5, 2-(4-((3-Aminophenyl)thio)-3-nitrobenzoyl)benzoic Acid], the MIC in series [1] (setting [2]) came out at 64 µg/mL (≈ 162 µM).

What is called MIC is the lowest concentration found to suppress growth. The melting point is the temperature, or range, at which the solid turns liquid.
